From article PMC7684764 (Journal of medicinal chemistry, 2020)

What was measured:
[1] = system: Salmonella typhimurium strain (with modified TA100); conditions: with liver S9 fraction activation
[2] = target: T1, APN (CD13, microsomal aminopeptidase) (Sus scrofa, UniProt P15145); experiment: CD13 inhibition assay; format: biochemical, porcine; conditions: 13a 50 μM and 10 μM, Figure S4
T1 sequence (P15145 1-963): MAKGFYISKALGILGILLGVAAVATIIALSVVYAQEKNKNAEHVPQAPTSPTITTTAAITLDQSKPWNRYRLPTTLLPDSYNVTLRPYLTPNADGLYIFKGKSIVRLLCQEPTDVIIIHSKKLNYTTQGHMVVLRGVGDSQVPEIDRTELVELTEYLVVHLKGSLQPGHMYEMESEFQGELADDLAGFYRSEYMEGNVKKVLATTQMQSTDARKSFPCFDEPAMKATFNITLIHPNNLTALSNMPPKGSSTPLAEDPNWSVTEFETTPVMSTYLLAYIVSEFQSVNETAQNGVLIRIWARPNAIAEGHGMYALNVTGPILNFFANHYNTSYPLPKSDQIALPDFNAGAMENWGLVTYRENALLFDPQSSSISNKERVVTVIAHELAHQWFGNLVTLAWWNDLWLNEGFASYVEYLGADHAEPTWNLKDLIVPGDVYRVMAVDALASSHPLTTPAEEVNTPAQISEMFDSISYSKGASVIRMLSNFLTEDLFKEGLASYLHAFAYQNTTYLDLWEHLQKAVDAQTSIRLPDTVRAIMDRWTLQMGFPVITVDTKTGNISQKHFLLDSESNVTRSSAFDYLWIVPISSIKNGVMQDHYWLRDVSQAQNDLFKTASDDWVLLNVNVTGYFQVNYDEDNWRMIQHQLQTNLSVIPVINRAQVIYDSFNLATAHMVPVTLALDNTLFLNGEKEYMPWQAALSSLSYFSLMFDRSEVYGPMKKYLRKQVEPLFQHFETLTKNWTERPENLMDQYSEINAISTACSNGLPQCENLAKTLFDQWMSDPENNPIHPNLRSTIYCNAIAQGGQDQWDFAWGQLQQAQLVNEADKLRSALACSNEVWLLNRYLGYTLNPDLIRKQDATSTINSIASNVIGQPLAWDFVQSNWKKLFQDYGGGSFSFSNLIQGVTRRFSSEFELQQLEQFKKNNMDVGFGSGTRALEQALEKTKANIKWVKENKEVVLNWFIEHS

[3] = system: MV4–11 cells; experiment: Western blot analysis; format: cell-based; conditions: for increase in Hsp70 levels: 24 h, Figures 5A and C (MV4–11 and RS4;11); for FLT3 and STAT5 levels / pro-caspase3 cleavage: wt-p53 FLT3-ITD MV4–11, 24 h, Figure 5A
[4] = system: MV4–11 cells; experiment: Combination index; format: cell-based; conditions: MV4–11, 48 h, lower concentrations, Figure S8
[5] = system: NCI60 tumor cell lines; experiment: NCI60 tumor cell lines screen, whole panel; format: cell-based; conditions: concentrations under 10 μM
[6] = system: MV4–11 cells; experiment: Release profile by western blot after drug wash-out; format: cell-based; conditions: MV4–11, 3 h treatment, up to 6 h, Figure 3B
[7] = system: SR cell line; experiment: Western blot analysis; format: cell-based; conditions: wt-p53 SR, 24 h, Figure S7
[8] = system: RS4;11 cells; experiment: Western blot analysis; format: cell-based; conditions: wt-p53 wt-FLT3 RS4;11, 24 h; 13a 200 nM, panobinostat 100 nM, vorinostat 5000 nM
[9] = system: HL60 cells; experiment: Western blot analysis; format: cell-based; conditions: p53-null wt-FLT3 HL60, 24 h, Figure 5D
[10] = system: MV4–11 cells; experiment: EC50 analysis; format: cell-based; conditions: MV4–11, 50 μM
[11] = target: HDAC1 (Homo sapiens, UniProt Q13547); experiment: In vitro HDACs inhibition fluorescence assay; format: biochemical; conditions: IC50 curves after pre-incubation of 10, 30, 60 and 90 min, Figure 3A
Chain of HDAC1 (Q13547 whole entry): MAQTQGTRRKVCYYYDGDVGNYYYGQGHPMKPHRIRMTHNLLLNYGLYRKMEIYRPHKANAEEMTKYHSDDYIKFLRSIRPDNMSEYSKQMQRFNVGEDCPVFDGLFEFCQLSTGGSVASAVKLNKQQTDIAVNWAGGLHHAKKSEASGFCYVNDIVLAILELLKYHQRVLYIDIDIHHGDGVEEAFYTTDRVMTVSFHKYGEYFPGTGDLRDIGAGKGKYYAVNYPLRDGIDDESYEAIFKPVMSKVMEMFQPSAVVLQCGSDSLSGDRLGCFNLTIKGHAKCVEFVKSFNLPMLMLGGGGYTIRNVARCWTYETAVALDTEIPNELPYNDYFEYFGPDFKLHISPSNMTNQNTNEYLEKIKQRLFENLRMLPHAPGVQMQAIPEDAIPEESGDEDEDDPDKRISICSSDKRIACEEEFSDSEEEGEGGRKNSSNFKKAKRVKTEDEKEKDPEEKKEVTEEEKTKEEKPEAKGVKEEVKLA

[12] = target: HDAC3 (Homo sapiens, UniProt O15379); experiment: In vitro HDACs inhibition fluorescence assay; format: biochemical
Chain of HDAC3 (O15379 whole entry): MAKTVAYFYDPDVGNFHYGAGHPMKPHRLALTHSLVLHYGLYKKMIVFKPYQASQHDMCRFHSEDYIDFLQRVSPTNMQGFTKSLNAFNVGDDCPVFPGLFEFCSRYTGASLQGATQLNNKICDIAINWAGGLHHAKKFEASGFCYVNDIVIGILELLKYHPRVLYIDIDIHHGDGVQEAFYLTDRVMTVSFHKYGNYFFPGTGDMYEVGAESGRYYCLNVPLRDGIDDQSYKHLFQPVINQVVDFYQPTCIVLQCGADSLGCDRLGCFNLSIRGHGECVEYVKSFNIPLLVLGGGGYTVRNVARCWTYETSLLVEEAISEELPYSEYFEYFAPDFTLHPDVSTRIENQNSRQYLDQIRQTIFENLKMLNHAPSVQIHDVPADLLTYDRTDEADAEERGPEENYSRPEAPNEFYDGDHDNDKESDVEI
Chain of HDAC3 (Q9Y618 395-489 partner limits assumed): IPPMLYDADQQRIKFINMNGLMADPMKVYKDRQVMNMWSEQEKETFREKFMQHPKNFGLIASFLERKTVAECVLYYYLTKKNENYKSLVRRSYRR

## Nc1ccc2cc3ccccc3cc2c1 [2-aminoanthracene]
[1]
  mutagenicity, Mini-Ames: Ames positive

## CCCNNC(=O)/C=C/c1ccc(CNCCc2c(C)[nH]c3ccccc23)cc1.O=C(O)C(F)(F)F [Compound 13a, (E)-2-(2-methyl-1H-indol-3-yl)-N-(4-(3-oxo-3-(2-propylhydrazinyl)prop-1-en-1-yl)benzyl)ethanaminium 2,2,2-trifluoroacetate]
[2]
  inhibition of APN: does not show any inhibition
[3]
  increase in Hsp70 levels: not observed
  FLT3 and STAT5 levels: down-regulate
  pro-caspase3 cleavage: observed
[4]
  interaction of 13a with 17-AAG in anti-proliferation activity: antagonized
[1]
  mutagenicity, Mini-Ames: not mutagenic
[5]
  number of the 60 cell lines with lethality under 10 μM: 10
[6]
  acetylation of tubulin: does not increase the acetylation of tubulin
  histone acetylation after removal of drug: does not decrease within 6 h
[7]
  pro-caspase3 cleavage: does not cleave
[8]
  cleavage of pro-caspase3: only observed at high dose
[9]
  pro-caspase3 cleavage: not cleaved

## Cc1[nH]c2ccccc2c1CCNCc1ccc(/C=C/C(=O)NN(C)C)cc1.O=C(O)C(F)(F)F [Compound 26a, (E)-N-(4-(3-(2,2-dimethylhydrazinyl)-3-oxoprop-1-en-1-yl)benzyl)-2-(2-methyl-1H-indol-3-yl)ethanaminium 2,2,2-trifluoroacetate]
[10]
  effect on cell proliferation at 50 μM: do not affect cell proliferation

## Cc1[nH]c2ccccc2c1CCNCc1ccc(/C=C/C(=O)NN2CCCC2)cc1.O=C(O)C(F)(F)F [Compound 26b, (E)-2-(2-methyl-1H-indol-3-yl)-N-(4-(3-oxo-3-(pyrrolidin-1-ylamino)prop-1-en-1-yl)benzyl)ethanaminium 2,2,2-trifluoroacetate]
[10]
  effect on cell proliferation at 50 μM: do not affect cell proliferation

## Cc1[nH]c2ccccc2c1CCNCc1ccc(/C=C/C(=O)NN2CCCCC2)cc1.O=C(O)C(F)(F)F [Compound 26c, (E)-2-(2-methyl-1H-indol-3-yl)-N-(4-(3-oxo-3-(piperidin-1-ylamino)prop-1-en-1-yl)benzyl)ethanaminium 2,2,2-trifluoroacetate]
[10]
  effect on cell proliferation at 50 μM: do not affect cell proliferation

## Cc1[nH]c2ccccc2c1CCNCc1ccc(/C=C/C(=O)NN(CCCO)CCCO)cc1.O=C(O)C(F)(F)F [Compound 30, (E)-N-(4-(3-(2,2-bis(3-hydroxypropyl)hydrazinyl)-3-oxoprop-1-en-1-yl)benzyl)-2-(2-methyl-1H-indol-3-yl)ethanaminium 2,2,2-trifluoroacetate]
[10]
  effect on cell proliferation at 50 μM: do not affect cell proliferation

## Nc1ccccc1NC(=O)c1ccc(CNC(=O)OCc2cccnc2)cc1 [Entinostat, entinostat]
[3]
  pro-caspase3 cleavage: observed

## CCCNNC(=O)c1ccc(CNC(=O)/C=C/c2ccccc2)cc1 [LP411]
[3]
  FLT3 and STAT5 levels: down-regulate
  pro-caspase3 cleavage: observed

## Cc1[nH]c2ccccc2c1CCNCc1ccc(/C=C/C(=O)NO)cc1 [Panobinostat]
[3]
  increase in Hsp70 levels: observed
  pro-caspase3 cleavage: observed
[11]
  on-kinetics, HDAC1: fast-on kinetics
[1]
  mutagenicity, Mini-Ames: Ames positive
[5]
  number of the 60 cell lines with lethality under 10 μM: 18
[12]
  on-kinetics, HDAC3: fast-on kinetics
[6]
  acetylation of tubulin: completely disappears after 30 min
  histone acetylation after removal of drug: begins to decrease after 1 h
[8]
  cleavage of pro-caspase3: observed
